Experimental data from patent US12534493B2, “Bridged nucleoside and nucleotide” (Liid Pharmaceuticals, Inc., priority 2020, dated 2026).

Legend:
Format in all cases: binding
[1] = system: single-stranded RNA: 5′-r(ACGAGAACAUCC)-3′ (SEQ ID NO: 11); experiment: Melting temperature (Tm) measurement, double strand-forming ability, with single-stranded RNA; settings: duplex with single-stranded RNA SEQ ID NO: 11; for Tm: 10 mM phosphate buffer (pH7.0), 200 mM NaCl, 2.5 μM each oligonucleotide; for ΔTm/mod.: change per modification vs natural oligonucleotide
Description: (§1) A sample solution ([…]) with final concentrations of 10 mM phosphate buffer (pH7.0), 200 mM sodium chloride, and 2.5 μM each oligonucleotide was immersed in boiling water and slowly cooled to room temperature. The sample solution was cooled to 20° C., and the measurement was started. The temperature was raised to 90° C. at a rate of 0.5° C. per minute, and the absorbance at 260 nm was plotted at intervals of 0.5° C. All Tm values were calculated by the midline method and the average of three independent measurement results was taken.
(§2) conditions: 10 mM sodium phosphate buffer (pH7.0) containing 200 mM NaCl, […] of each strand

[2] = system: single-stranded DNA: 5′-d(ACGAGAACATCC)-3′ (SEQ ID NO: 12); experiment: Melting temperature (Tm) measurement, double strand-forming ability, with single-stranded DNA; settings: duplex with single-stranded DNA SEQ ID NO: 12; for Tm: 10 mM phosphate buffer (pH7.0), 200 mM NaCl, 2.5 μM each oligonucleotide; for ΔTm/mod.: change per modification vs natural oligonucleotide
Description: as §1, §2

[3] = system: double-stranded hairpin DNA: 5′-d(GGCAGAAGAAAAAGAGACGC)-C18 spacer-d(GCGTCTCTTTTTCTTCTGCC)-3′ (SEQ ID NO: 23); experiment: Melting temperature (Tm) measurement, triple strand-forming ability, with double-stranded hairpin DNA; settings: triplex with double-stranded hairpin DNA; for Tm: footnote: 10 mM sodium phosphate buffer (pH 7.0), 200 mM NaCl, 5 mM MgCl2; for ΔTm/mod.: change per modification vs natural oligonucleotide
Description: […] The sample solution was cooled to 15° C., and the measurement was started. The temperature was raised to 90° C. at a rate of 0.5° C. per minute, and the absorbance at 260 nm was plotted at intervals of 0.5° C. All Tm values were calculated by the midline method and the average of three independent measurement results was taken.

Row | Substance | Tm [1] [°C] | ΔTm/mod. [1] | Tm [2] [°C] | ΔTm/mod. [2] | Tm [3] [°C] | ΔTm/mod. [3]
1 | 5′-GGAYGYTCTCGT-3′: modified oligonucleotide with two separated Y modifications (DNA GGATGTTCTCGT; two Y modified nucleotides; misc_difference (4)..(4) LNA; misc_difference (6)..(6) LNA) | 65 | +6.5 °C | 58 | +3.5 °C |  | 
2 | 5′ -TCTTCTTTTTCTCT-3′: unmodified triplex-forming oligonucleotide; C shows 2′-deoxy-5-methylcytidine (DNA, all C 5-methyl, backbone not given here; triplex-forming oligonucleotide) |  |  |  |  | 31 | 
3 | 5′ -TCTTCTYYYTCTCT-3′: modified oligonucleotide with three consecutive Y modifications (DNA TCTTCTTTTTCTCT; three Y modified nucleotides; (2)..(2) 2′-Deoxy-5-methylcytidine; (5)..(5) 2′-Deoxy-5-methylcytidine; misc_difference (7)..(7) LNA; misc_difference (8)..(8) LNA; misc_difference (9)..(9) LNA; (11)..(11) 2′-Deoxy-5-methylcytidine; (13)..(13) 2′-Deoxy-5-methylcytidine) |  |  |  |  | 46 | +5.0 °C
4 | 5′ -TCTTCXTXTXCTCT-3′: modified oligonucleotide with three separated X modifications (DNA TCTTCTTTTTCTCT; three X modified nucleotides; (2)..(2) 2′-Deoxy-5-methylcytidine; (5)..(5) 2′-Deoxy-5-methylcytidine; misc_difference (6)..(6) Me-TaNA; misc_difference (8)..(8) Me-TaNA; misc_difference (10)..(10) Me-TaNA; (11)..(11) 2′-Deoxy-5-methylcytidine; (13)..(13) 2′-Deoxy-5-methylcytidine) |  |  |  |  | 53 | +7.3 °C
5 | 5′ -TCTTCTTYTTCTCT-3′: modified oligonucleotide with one Y modification; C shows 2′-deoxy-5-methylcytidine (DNA TCTTCTTTTTCTCT; Y modified nucleotide; 5-methylcytidines; (2)..(2) 2′-Deoxy-5-methylcytidine; (5)..(5) 2′-Deoxy-5-methylcytidine; misc_difference (8)..(8) LNA; (11)..(11) 2′-Deoxy-5-methylcytidine; (13)..(13) 2′-Deoxy-5-methylcytidine) |  |  |  |  | 37 | +6.0 °C
6 | 5′-GGAZGZTCTCGT-3′: modified oligonucleotide with two separated Z modifications (DNA GGATGTTCTCGT; two Z modified nucleotides; misc_difference (4)..(4) ENA; misc_difference (6)..(6) ENA) | 65 | +6.5 °C | 57 | +3.0 °C |  | 
7 | 5′-GGATGYYCTCGT-3′: modified oligonucleotide with two consecutive Y modifications (DNA GGATGTTCTCGT; two Y modified nucleotides; misc_difference (6)..(6) LNA; misc_difference (7)..(7) LNA) | 64 | +6.0 °C | 57 | +3.0 °C |  | 
8 | 5′ -TCTTCTZZZTCTCT-3′: modified oligonucleotide with three consecutive Z modifications (DNA TCTTCTTTTTCTCT; three Z modified nucleotides; (2)..(2) 2′-Deoxy-5-methylcytidine; (5)..(5) 2′-Deoxy-5-methylcytidine; misc_difference (7)..(7) ENA; misc_difference (8)..(8) ENA; misc_difference (9)..(9) ENA; (11)..(11) 2′-Deoxy-5-methylcytidine; (13)..(13) 2′-Deoxy-5-methylcytidine) |  |  |  |  | 48 | +5.7 °C
9 | 5′-GGATGXXCTCGT-3′: modified oligonucleotide with two consecutive X modifications (DNA GGATGTTCTCGT; DNA oligonucleotide with modified nucleotide X, X not given here, further chemistry not given here) | 66 | +7.0 °C | 58 | +3.5 °C |  | 
10 | 5′ -TCTTCYTYTYCTCT-3′: modified oligonucleotide with three separated Y modifications (DNA TCTTCTTTTTCTCT; three Y modified nucleotides; (2)..(2) 2′-Deoxy-5-methylcytidine; (5)..(5) 2′-Deoxy-5-methylcytidine; misc_difference (6)..(6) LNA; misc_difference (8)..(8) LNA; misc_difference (10)..(10) LNA; (11)..(11) 2′-Deoxy-5-methylcytidine; (13)..(13) 2′-Deoxy-5-methylcytidine) |  |  |  |  | 51 | +6.7 °C
11 | 5′-GGATGZZCTCGT-3′: modified oligonucleotide with two consecutive Z modifications (DNA GGATGTTCTCGT; two Z modified nucleotides; misc_difference (6)..(6) ENA; misc_difference (7)..(7) ENA) | 64 | +6.0 °C | 57 | +3.0 °C |  | 
12 | 5′ -TCTTCZTZTZCTCT-3′: modified oligonucleotide with three separated Z modifications (DNA TCTTCTTTTTCTCT; three Z modified nucleotides; (2)..(2) 2′-Deoxy-5-methylcytidine; (5)..(5) 2′-Deoxy-5-methylcytidine; misc_difference (6)..(6) ENA; misc_difference (8)..(8) ENA; misc_difference (10)..(10) ENA; (11)..(11) 2′-Deoxy-5-methylcytidine; (13)..(13) 2′-Deoxy-5-methylcytidine) |  |  |  |  | 51 | +6.7 °C
13 | 5′ -TCTTCTXXXTCTCT-3′: modified oligonucleotide with three consecutive X modifications (DNA TCTTCTTTTTCTCT; three X modified nucleotides; (2)..(2) 2′-Deoxy-5-methylcytidine; (5)..(5) 2′-Deoxy-5-methylcytidine; misc_difference (7)..(7) Me-TaNA; misc_difference (8)..(8) Me-TaNA; misc_difference (9)..(9) Me-TaNA; (11)..(11) 2′-Deoxy-5-methylcytidine; (13)..(13) 2′-Deoxy-5-methylcytidine) |  |  |  |  | 50 | +6.3 °C
14 | 5′ -TCTTCTTXTTCTCT-3′: modified oligonucleotide with one X modification; C shows 2′-deoxy-5-methylcytidine (DNA TCTTCTTTTTCTCT; X modified nucleotide; 5-methylcytidines; (2)..(2) 2′-Deoxy-5-methylcytidine; (5)..(5) 2′-Deoxy-5-methylcytidine; misc_difference (8)..(8) Me-TaNA; (11)..(11) 2′-Deoxy-5-methylcytidine; (13)..(13) 2′-Deoxy-5-methylcytidine) |  |  |  |  | 36 | +5.0 °C
15 | 5′ -TCTTCTTZTTCTCT-3′: modified oligonucleotide with one Z modification; C shows 2′-deoxy-5-methylcytidine (DNA TCTTCTTTTTCTCT; Z modified nucleotide; 5-methylcytidines; (2)..(2) 2′-Deoxy-5-methylcytidine; (5)..(5) 2′-Deoxy-5-methylcytidine; misc_difference (8)..(8) ENA; (11)..(11) 2′-Deoxy-5-methylcytidine; (13)..(13) 2′-Deoxy-5-methylcytidine) |  |  |  |  | 36 | +5.0 °C
16 | 5′-GGAXGXTCTCGT-3′: modified oligonucleotide with two separated X modifications (DNA GGATGTTCTCGT; DNA oligonucleotide with modified nucleotide X, X not given here, further chemistry not given here) | 66 | +7.0 °C | 58 | +3.5 °C |  | 
